Data: patent publication US20020137929A1, “1 - (3-heterocyclylphenyl) isothiourea, -isourea, -guanidine and -amidine herbicidal agents” (Intellectual Property Department, BASF Aktiengesellschaft, priority 1998, published 2002)

How the values were obtained:
AMBEL (Ragweed, Common) [1] = assay: Postemergence herbicidal evaluation; assay type: in vivo, Ambrosia artemisifolia; conditions: postemergence
Outline: (§1)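 Scores (0–9) reflect plant stand, vigor, malformation, size, chlorosis and general appearance relative to control, read 4 to 5 weeks after treatment and averaged where tests were repeated. Application: about 0.0156–0.500 kg/ha sprayed at 40 psi onto two-week seedlings.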

[2] = tested on: IPOHE (Morningglory, Ivyleaf); assay: Postemergence herbicidal evaluation; assay type: in vivo, Ipomoea hederacea; conditions: postemergence
Outline: as §1

[3] = tested on: GLXMAW (Soybean, Williams); assay: Postemergence herbicidal evaluation; assay type: in vivo, Glycine max, (L.) Merr. cv Williams; conditions: postemergence
Outline: as §1

ZEAMX (Corn, Field) = assay: Postemergence herbicidal evaluation; assay type: in vivo, Zea mays; conditions: postemergence
Outline: as §1

ABUTH (Velvetleaf) = assay: Preemergence herbicidal evaluation; assay type: in vivo, Abutilon theophrasti; conditions: rated 4-5 weeks after treatment
Outline: (§2)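 Seeds were mixed with potting soil and planted on about one inch of soil, then sprayed with test compound in aqueous acetone at about 0.0156 to 0.500 kg per hectare. Plants grew under standard greenhouse care and were visually rated 0-9 against untreated controls 4-5 weeks post-treatment.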

AMBEL (Ragweed, Common) [4] = assay: Preemergence herbicidal evaluation; assay type: in vivo, Ambrosia artemisifolia; conditions: rated 4-5 weeks after treatment
Outline: as §2

CASOB (Sicklepod) = assay: Preemergence herbicidal evaluation; assay type: in vivo, Cassia obtusifolia; conditions: rated 4-5 weeks after treatment
Outline: as §2

GALAP (Galium) = assay: Preemergence herbicidal evaluation; assay type: in vivo, Galium aparine; conditions: rated 4-5 weeks after treatment
Outline: as §2

ECHCG (Barnyardgrass) = assay: Preemergence herbicidal evaluation; assay type: in vivo, Echinochloa crus-galli; conditions: rated 4-5 weeks after treatment
Outline: as §2

SETVI (Foxtail, Green) = assay: Preemergence herbicidal evaluation; assay type: in vivo, Setaria viridis; conditions: rated 4-5 weeks after treatment
Outline: as §2

[5] = tested on: GLXMAW (Soybean, Williams); assay: Preemergence herbicidal evaluation; assay type: in vivo, Glycine max, (L.) Merr. cv Williams; conditions: rated 4-5 weeks after treatment
Outline: as §2

CYPSE (Flatsedge) = assay: Preemergence weed control under flooded paddy conditions; assay type: in vivo, Cyperus serotinus; conditions: rated 3-4 weeks after treatment
Outline: (§3)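 Values are visual 0-9 scores against a control for a preemergence application into paddy flood water at about 0.0313 to 0.500 kg/ha. Greenhouse duration was three to four weeks.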

[6] = tested on: SAGPY (Arrowhead (Pygmaea)); assay: as above; assay type: in vivo, Sagittaria pygmaea; conditions: rated 3-4 weeks after treatment
Outline: as §3

[7] = tested on: ECHORC (Watergrass (Calif.)); assay: Postemergence weed control under flooded paddy conditions; assay type: in vivo, Echinochloa oryzoides; conditions: postemergence weeds, rated 3 to 4 weeks after treatment
Outline: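 With weeds 3 to 5 cm tall and rice at the 1.5 to 2.5 leaf stage, containers were flooded and water held 1.5 to 3 cm above soil. Compounds in 50/50 v/v aqueous/acetone went into the flood water at about 0.0313 to 0.500 kg/ha a.i. Effects were visually rated 0–9 against controls after three to four weeks in the greenhouse.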

Compound `CCOC(=O)CN1C(=O)C(CC(=O)Nc2ccccc2)SC1=Nc1cc(-n2c(=O)cc(C(F)(F)F)n(C)c2=O)c(F)cc1Cl` (centres unmarked) [Compound 68, Ethyl 2-{{2-chloro-5-[3,6-dihydro-3-methyl-2,6-dioxo-4-(trifluoromethyl)-1(2H)-pyrimidinyl]-4-fluorophenyl}imino}-4-oxo-5-[(phenylcarbamoyl)-methyl]-3-thiazolidineacetate] has an AMBEL herbicidal rating (AMBEL (Ragweed, Common) [1]; rate 0.0158 kg/ha) of 9.0, an AMBEL herbicidal rating (AMBEL (Ragweed, Common) [1]; rate 0.0315 kg/ha) of 9.0 and an AMBEL herbicidal rating (AMBEL (Ragweed, Common) [1]; rate 0.0630 kg/ha) of 9.0. It also gave an IPOHE herbicidal rating ([2]; rate 0.0158 kg/ha) of 9.0, an IPOHE herbicidal rating ([2]; rate 0.0315 kg/ha) of 9.0 and an IPOHE herbicidal rating ([2]; rate 0.0630 kg/ha) of 9.0. The GLXMAW herbicidal rating ([3]; rate 0.0158 kg/ha) was 6.0, the GLXMAW herbicidal rating ([3]; rate 0.0315 kg/ha) was 5.5 and the GLXMAW herbicidal rating ([3]; rate 0.0630 kg/ha) was 7.0. It also gave a ZEAMX herbicidal rating (ZEAMX (Corn, Field); rate 0.0158 kg/ha) of 5.0, a ZEAMX herbicidal rating (ZEAMX (Corn, Field); rate 0.0315 kg/ha) of 5.0 and a ZEAMX herbicidal rating (ZEAMX (Corn, Field); rate 0.0630 kg/ha) of 5.5. For the same compound, the “Preemergence herbicidal rating ABUTH” value (ABUTH (Velvetleaf); rate 0.0156 kg/ha) was 0.0, the “Preemergence herbicidal rating ABUTH” value (ABUTH (Velvetleaf); rate 0.0313 kg/ha) was 1.0 and the “Preemergence herbicidal rating ABUTH” value (ABUTH (Velvetleaf); rate 0.0625 kg/ha) was 1.0. For the same compound, the “Preemergence herbicidal rating ABUTH” value (ABUTH (Velvetleaf); rate 0.1250 kg/ha) was 5.0, the “Preemergence herbicidal rating ABUTH” value (ABUTH (Velvetleaf); rate 0.2500 kg/ha) was 9.0 and the “Preemergence herbicidal rating AMBEL” value (AMBEL (Ragweed, Common) [4]; rate 0.0156 kg/ha) was 0.0. The “Preemergence herbicidal rating AMBEL” value (AMBEL (Ragweed, Common) [4]; rate 0.0313 kg/ha) was 0.0, the “Preemergence herbicidal rating AMBEL” value (AMBEL (Ragweed, Common) [4]; rate 0.0625 kg/ha) was 0.0 and the “Preemergence herbicidal rating AMBEL” value (AMBEL (Ragweed, Common) [4]; rate 0.1250 kg/ha) was 1.0. For the same compound, the “Preemergence herbicidal rating AMBEL” value (AMBEL (Ragweed, Common) [4]; rate 0.2500 kg/ha) was 7.0, the “Preemergence herbicidal rating CASOB” value (CASOB (Sicklepod); rate 0.0156 kg/ha) was 0.0 and the “Preemergence herbicidal rating CASOB” value (CASOB (Sicklepod); rate 0.0313 kg/ha) was 0.0. The “Preemergence herbicidal rating CASOB” value (CASOB (Sicklepod); rate 0.0625 kg/ha) was 0.0, the “Preemergence herbicidal rating CASOB” value (CASOB (Sicklepod); rate 0.1250 kg/ha) was 0.0 and the “Preemergence herbicidal rating CASOB” value (CASOB (Sicklepod); rate 0.2500 kg/ha) was 1.0. For the same compound, the “Preemergence herbicidal rating GALAP” value (GALAP (Galium); rate 0.0156 kg/ha) was 0.0, the “Preemergence herbicidal rating GALAP” value (GALAP (Galium); rate 0.0313 kg/ha) was 0.0 and the “Preemergence herbicidal rating GALAP” value (GALAP (Galium); rate 0.0625 kg/ha) was 0.0. The “Preemergence herbicidal rating GALAP” value (GALAP (Galium); rate 0.1250 kg/ha) was 0.0, the “Preemergence herbicidal rating GALAP” value (GALAP (Galium); rate 0.2500 kg/ha) was 0.0 and the “Preemergence herbicidal rating ECHCG” value (ECHCG (Barnyardgrass); rate 0.0156 kg/ha) was 0.0. The “Preemergence herbicidal rating ECHCG” value (ECHCG (Barnyardgrass); rate 0.0313 kg/ha) was 0.0, the “Preemergence herbicidal rating ECHCG” value (ECHCG (Barnyardgrass); rate 0.0625 kg/ha) was 0.0 and the “Preemergence herbicidal rating ECHCG” value (ECHCG (Barnyardgrass); rate 0.1250 kg/ha) was 0.0. The “Preemergence herbicidal rating ECHCG” value (ECHCG (Barnyardgrass); rate 0.2500 kg/ha) was 1.0, the “Preemergence herbicidal rating SETVI” value (SETVI (Foxtail, Green); rate 0.0156 kg/ha) was 0.0 and the “Preemergence herbicidal rating SETVI” value (SETVI (Foxtail, Green); rate 0.0313 kg/ha) was 0.0. The “Preemergence herbicidal rating SETVI” value (SETVI (Foxtail, Green); rate 0.0625 kg/ha) was 0.0, the “Preemergence herbicidal rating SETVI” value (SETVI (Foxtail, Green); rate 0.1250 kg/ha) was 0.0 and the “Preemergence herbicidal rating SETVI” value (SETVI (Foxtail, Green); rate 0.2500 kg/ha) was 2.0. For the same compound, the “Preemergence herbicidal rating GLXMAW” value ([5]; rate 0.0156 kg/ha) was 0.0, the “Preemergence herbicidal rating GLXMAW” value ([5]; rate 0.0313 kg/ha) was 0.0 and the “Preemergence herbicidal rating GLXMAW” value ([5]; rate 0.0625 kg/ha) was 0.0. The “Preemergence herbicidal rating GLXMAW” value ([5]; rate 0.1250 kg/ha) was 1.0, the “Preemergence herbicidal rating GLXMAW” value ([5]; rate 0.2500 kg/ha) was 1.0 and the “CYPSE herbicidal effect rating” value (CYPSE (Flatsedge); 0.0313 kg/ha) was 0.0. The “CYPSE herbicidal effect rating” value (CYPSE (Flatsedge); 0.0625 kg/ha) was 0.0, the “CYPSE herbicidal effect rating” value (CYPSE (Flatsedge); 0.1250 kg/ha) was 0.0 and the “CYPSE herbicidal effect rating” value (CYPSE (Flatsedge); 0.2500 kg/ha) was 0.0. The “SAGPY herbicidal effect rating” value ([6]; 0.0313 kg/ha) was 0.0, the “SAGPY herbicidal effect rating” value ([6]; 0.0625 kg/ha) was 0.0 and the “SAGPY herbicidal effect rating” value ([6]; 0.1250 kg/ha) was 0.0. For the same compound, the “SAGPY herbicidal effect rating” value ([6]; 0.2500 kg/ha) was 3.0, the “Herbicidal rating ECHORC” value ([7]; Rate 0.0313 kg/ha) was 0.0 and the “Herbicidal rating ECHORC” value ([7]; Rate 0.0625 kg/ha) was 5.0. For the same compound, the “Herbicidal rating ECHORC” value ([7]; Rate 0.1250 kg/ha) was 7.0 and the “Herbicidal rating ECHORC” value ([7]; Rate 0.2500 kg/ha) was 7.0.
